Source: publication PMC4826176, “Identification of H7 as a novel peroxiredoxin I inhibitor to induce differentiation of leukemia cells” (Oncotarget, 2015)

Columns and labels:
[1] = target: T1, Prdx I (endogenous, NB4 cell lysate) (Homo sapiens, UniProt Q06830); assay: cellular thermal shift assay (CETSA) in lysate, Western blot; assay type: biochemical; settings: NB4 lysate in PBS, heated 3 min at different temperatures (75.9°C for dose dependence)
T1 construct: gene PRDX1; endogenous untagged protein in NB4 cell lysate, detected by Western blot
T1 sequence (Q06830 2-199): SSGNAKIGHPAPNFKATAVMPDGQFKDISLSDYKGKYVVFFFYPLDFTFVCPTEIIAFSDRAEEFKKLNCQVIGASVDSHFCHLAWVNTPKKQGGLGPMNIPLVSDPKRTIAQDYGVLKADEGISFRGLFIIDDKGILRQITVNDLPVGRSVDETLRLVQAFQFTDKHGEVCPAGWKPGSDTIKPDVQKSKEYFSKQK

[2] = target: T2, Prdx I (recombinant human peroxiredoxin I) (Homo sapiens, UniProt Q06830); assay: peroxidase activity, Trx-Trx reductase-NADPH-coupled spectrophotometric assay; assay type: biochemical
T2 construct: gene PRDX1; full-length, N-terminal His6 tag (pET28a), expressed in E. coli BL21, purified
T2 sequence (Q06830 2-199): T1 sequence (Q06830 2-199)

[3] = target: T2, Prdx I (recombinant human peroxiredoxin I); assay: surface plasmon resonance (Biacore T200), single-cycle kinetics; assay type: binding; settings: read-out: dissociation constant
Text: surface plasmon resonance (Biacore T200), single-cycle kinetics on Prdx I (recombinant human peroxiredoxin I) | H7 rapidly associated and disassociated from the immobilized Prdx I at a dissociation constant of […]

CCc1ccc(S(=O)(=O)N=C2C=CC(=O)c3ccccc32)cc1 [H7]
cellular thermal shift assay (CETSA) in lysate, Western blot [1]: addition of H7 but not DMSO into the cell lysates increased the stability of Prdx I | IC50 [2]: 7.85 µM | Kd [3]: 1.57 µM
